Experimental data taken from PubChem BioAssay AID2305 (GlaxoSmithKline (GSK), 2010).
Several values for one entry are separate records, joined by “and”; a condition that tells them apart may be missing. Identical values can stand only once.

test system: P. falciparum 3D7 growth, pLDH absorbance; experiment: P. falciparum 3D7 growth inhibition, dose response, strain 3D7 (AID 2305)

| Compound | IC50 |
| --- | --- |
| CN(C)CCCOc1ccc(CN2CC[C@H](NC(=O)c3ccc(Cl)c(Cl)c3)C2)cc1Br | 760 nM |
| COCCNCc1cccc(-c2ccc(CNC3CCN(Cc4ccccc4)CC3)cc2)c1 | 510 nM |
| CN(C)CCOc1cccc(NC(=O)Nc2ccc(-c3ccccc3)cc2)c1 | 880 nM |
| FC(F)(F)c1ccc2nc(-c3cccc(-c4cccc(CNCCN5CCNCC5)c4)c3)[nH]c2c1 | 940 nM |
| C#CCN(Cc1cc2c(=O)[nH]c(N)nc2cc1C)c1ccc(C(=O)N[C@@H](CCC(=O)O)C(=O)O)cc1 | 630 nM |
| Cc1ccc(CNC(=O)[C@H](CC(C)C)Nc2cc(C)nc(NCc3ccccc3C)n2)cc1 | 950 nM |
| CS(=O)(=O)c1ccc2nc(-c3cc(-c4cccc(F)c4)cnc3N)[nH]c2c1 | 1090 nM |
| COc1ccc(Nc2ccnc3cc(Cl)ccc23)cc1OC | 1120 nM |
| CCOC(=O)c1ccc(-c2cnc(N)c(-c3nc4c(C)cccc4[nH]3)c2)cc1 | 280 nM |
| COc1ccc2c(NN=Cc3ccc(F)cc3)ccnc2c1 | 440 nM |
| c1ccc(C23N=C(Nc4nc5ccccc5[nH]4)NC2(c2ccccc2)NC(Nc2nc4ccccc4[nH]2)=N3)cc1 (centres undefined) | 280 nM |
| COc1ccccc1Nc1nc(C)cc(NCc2ccc(-n3ccnc3)cc2)n1 | 1050 nM |
| CN(C(=O)/C=C/c1c(Cl)cccc1Cl)C1CCN(CCCCCNC(=O)/C=C/c2ccc(Cl)c(Cl)c2)CC1 | 360 nM |
| O=C(Nc1ccc(CCNCc2ccccc2)cc1)Nc1ccc(OC(F)(F)F)cc1 | 580 nM |
| O=C(/C=C/c1ccc(Cl)c(Cl)c1)NCCCCCN1CCCN(C(=S)Nc2ccc(Cl)cc2)CC1 | 1130 nM |
| O=C(Nc1nc2cc(S(=O)(=O)NCc3ccc(Cl)c(Cl)c3)ccc2n1CCCN1CCCC1)c1ccc(Cl)cc1 | 940 nM |
| O=C(/C=C/c1ccc(Cl)c(Cl)c1)NCCCCCN1CCC(NC(=S)Nc2ccc(F)cc2F)CC1 | 810 nM |
| COC(=O)/C=C/c1ccc(CC(C)NCC(O)c2cccc(C(F)(F)F)c2)cc1 (centres undefined) | 770 nM |
| COc1ccc(-c2cccc(NC(=O)c3cccc(Cl)c3)c2)cc1CN1CCN(C)CC1 | 760 nM |
| Cc1nnsc1C(=O)Nc1ccc(-c2cccc(-c3nc4ccc(C(F)(F)F)cc4[nH]3)c2)cc1 | 840 nM |
| CCc1cc(Br)c(CNCCCNc2cc(=O)c3ccccc3[nH]2)s1 | 950 nM |
| COc1cc(Nc2nccc(N3CCC(NS(=O)(=O)c4ccc(NC(C)=O)cc4)CC3)n2)cc(OC)c1OC | 970 nM |
| O=C(C=Cc1cccc(Cl)c1Cl)NC1CCC(CN2CCC(c3c[nH]c4ccccc34)CC2)CC1 (centres undefined) | 680 nM and 1140 nM |
| O=C(CN1CCCCC1)Nc1ccc(Nc2nccc(NCC(O)c3ccccc3)n2)cc1 (centres undefined) | 580 nM |
| N=C1c2ccccc2CN1CC(=O)c1ccc(Cl)c(Cl)c1 | 730 nM |

| Compound | IC50 |
| --- | --- |
| O=C(NCCN1CCCCC1)N1CCCN(c2ncnc3cc(-c4ccccc4)sc23)CC1 | 230 nM |
| COc1ccccc1C1CN(Cc2coc3ccccc3c2=O)Cc2ccccc2O1 (centres undefined) | 1320 nM |
| OCCN1CCN(Cc2cccc(-c3ccc(-c4nc5ccc(C(F)(F)F)cc5[nH]4)s3)c2)CC1 | 90 nM |
| Cc1cccc2[nH]c(-c3cccc(-c4ccc(NC(=O)Cc5cnc[nH]5)cc4)c3)nc12 | 690 nM |
| CN1CCC(N(Cc2ccc(-c3ccc(C(F)(F)F)cc3)cc2)C(=O)Cn2c(SCc3cccc(F)c3F)cc(=O)c3c2CCC3)CC1 | 160 nM |
| Nc1nc(N)c2cc(C(F)(F)F)ccc2n1 | 1130 nM |
| O=C(/C=C/c1ccc(Cl)c(Cl)c1)NCCCCCN1CCC(c2[nH]nc(-c3ccccc3)c2Br)CC1 | 720 nM |
| CN(Cc1ccc(C#N)cc1)C1CCN(c2cc(NC(=O)c3cccc(F)c3)ccn2)CC1 | 1750 nM |
| CNC(=O)c1ccccc1Nc1nc(Nc2cccnc2)ncc1C | 100 nM |
| Cc1[nH]c2ccc(O)cc2c1C1CCN(CCCCCNC(=O)/C=C/c2ccc(Cl)c(Cl)c2)CC1 | 770 nM |
| COc1c(C)[nH]c(C)c(-c2ccc(Oc3cccc(C(F)(F)F)c3)cc2)c1=O | 310 nM |
| Cc1cc(N2CCCC2)nc(Nc2ccc(NC(=O)c3ccco3)cc2)n1 | 840 nM |
| COc1ccc(NC(=O)[C@H](Cc2ccccc2)Nc2nc(NCCN3CCCC3)ncc2C)cc1 | 990 nM |
| COC(=O)c1ccc(Nc2nccc(Nc3ccc(Oc4ccccc4)cc3)n2)cc1 | 1020 nM |
| CC1(CCCCN2CC=C(c3c[nH]c4ccccc34)CC2)C(=O)Nc2ccccc21 (centres undefined) | 140 nM |
| COc1cc(O)c2c(=O)c(OC)c(-c3cccc(Cl)c3OC3O[C@H](CO)[C@@H](O)[C@H](O)[C@H]3O)oc2c1OC (some centres undefined) | 770 nM |
| COc1cc(F)c2nccc([C@@H](O)CN3CCC(NCc4nc5c(F)cccc5[nH]4)CC3)c2c1 | 850 nM |
| Cc1cc2nc(-c3ccc(C(=O)NCCCc4ccccc4)cc3)[nH]c2cc1C | 1180 nM |
| COc1ccc(NC(=O)[C@H](CC(C)C)Nc2ccnc(NCCc3ccc(F)cc3)n2)cc1 | 1600 nM |
| C=CCOC(=O)N1CCC(CNCc2cccc(-c3ccc(-c4nc5ccccc5[nH]4)s3)c2)C1 (centres undefined) | 270 nM |
| CN(c1cc(NC(=O)c2ccccc2)ccn1)C1CCN(Cc2cccc(F)c2)CC1 | 740 nM |
| CCOc1cc(C(=O)N[C@@H](Cc2ccccc2)[C@H](O)CNCc2cc(OC)cc(OC)c2)cc(N2CCCC2=O)c1 | 850 nM |
| CCc1ccccc1N1CCN(CCCC(=O)c2ccc(NC(=O)c3cc(Cl)cc(Cl)c3)cc2)CC1 | 290 nM |
| O=C(Nc1cccc(CN2CCN(Cc3ccc(O)cc3)CC2)c1)c1ccc(-c2ccccc2)cc1 | 250 nM |
| Cc1cccc(Cl)c1S(=O)(=O)N1CCCCC(c2ccc(C(F)(F)F)cc2)=N1 | 220 nM |

| Compound | IC50 |
| --- | --- |
| O=C(Nc1ccc(Cl)cc1)Nc1ccc(-c2csc(-c3nc4ccccc4[nH]3)c2)cc1 | 800 nM |
| Nc1ncc(-c2ccccc2)cc1/C=C/c1cccnc1 | 1120 nM |
| Cc1cccc(OCC(=O)Nc2cccc(NC(=O)COc3cccc(C)c3)n2)c1 | 670 nM |
| COc1cccc2c(O)c(CNC3CCCCC3)ccc12 | 630 nM |
| CCCCCN1C(=O)C(c2ccccc2)(c2ccccc2)N=C1N | 790 nM |
| O=C(NCCCCCN1CCC(c2c[nH]c3ccccc23)CC1)Nc1ccc(Cl)cc1Cl | 720 nM |
| Nc1ncc(-c2cn[nH]c2)cc1-c1nc2ncc(Cl)cc2[nH]1 | 910 nM |
| O=C(/C=C/c1ccc(Cl)c(Cl)c1)NCCC(CN1CCC(c2c[nH]c3ccccc23)CC1)c1ccccc1 (centres undefined) | 570 nM |
| COc1ccc2ncc(Cl)c([C@@H](O)CN3CCC(NCc4cc5c(cn4)OCCO5)CC3)c2c1 | 60 nM |
| O=C(Nc1cc(C(F)(F)F)cc(C(F)(F)F)c1)N1CCC(CCN2CCC(c3c[nH]c4ccccc34)CC2)CC1 | 1260 nM |
| CCNc1cc(C)nc(Nc2ccc(F)cc2)n1 | 800 nM |
| Nc1nc(N)c2c(ccc3c2ncn3Cc2ccccc2)n1 | 90 nM |
| CC1CCCC(Nc2noc(-c3sccc3Br)n2)C1 (centres undefined) | 690 nM |
| Cn1c(Nc2nnc(C3CC3)s2)nc2cc(Nc3ccnc(Nc4cccc(CS(C)(=O)=O)c4)n3)ccc21 | 680 nM |
| Cc1nc2nc(N)nc(N)c2c(C)c1Cc1ccc(N)cc1 | 640 nM |
| Cc1ccc(CC(C)NC[C@H](O)c2cccc(Cl)c2)cc1 (some centres undefined) | 860 nM |
| FC(F)(F)c1ccc2nc(-c3cccc(-c4ccc(CNCc5cnn(-c6ccccc6)n5)cc4)c3)[nH]c2c1 | 1330 nM |
| CC(C)CNCc1ccc(-c2ccccc2CN(C(=O)NCCc2ccccc2)C2CCN(Cc3ccccc3)CC2)cc1 | 880 nM |
| COc1ccc2nccc([C@@H](O)CN3CCC(NC(=O)[C@@H]4Cc5ccccc5CN4C(=O)OC(C)(C)C)CC3)c2c1 | 890 nM |
| CCCN1CCN(CCCNc2c3ccccc3nc3ccccc23)CC1 | 550 nM |
| CC1CC(C)CN(CCCNc2ccc(C(=O)Nc3ccc(C(F)(F)F)cc3)cc2[N+](=O)[O-])C1 (centres undefined) | 200 nM |
| O=C(/C=C/c1ccc(Cl)c(Cl)c1)NCCCCCN1CCC(NC(=O)Nc2cccc(F)c2)CC1 | 770 nM |
| COc1ccc(CCNc2nc(N)c3cc(OC)c(OC)cc3n2)cc1 | 1120 nM |
| CN1CCN(Cc2ccc(-c3cc4c(Nc5ccc(OCc6cccc(F)c6)c(Cl)c5)ncnc4s3)[nH]2)CC1 | 770 nM |
| CS(=O)(=O)Nc1ccc(-c2ccc3ccnc(N)c3c2)cc1 | 610 nM |

| Compound | IC50 |
| --- | --- |
| COc1cc(C(=O)NCCCN2CCN(c3cccc(Cl)c3)CC2)ccc1-c1cc2cc(Cl)c(Cl)cc2[nH]1 | 470 nM |
| CN1CCN(c2ccc3nc(-c4ccc5nc(-c6ccc([N+](=O)[O-])c(N)c6)[nH]c5c4)[nH]c3c2)CC1 | 100 nM |
| NCC(NC(=O)c1ccc(-c2c[nH]c3ncccc23)s1)c1ccccc1 (centres undefined) | 550 nM |
| COc1ccc(C2CCN(CCN3CCC(NC(=O)c4cccc(-c5ccncc5)c4)CC3)CC2)c(OC)c1 | 800 nM |
| O=C(Nc1cccc(Cl)c1N1CCOCC1)C(Cl)(Cl)Cl | 980 nM |
| COc1cc2c(cc1OC)CC(NCCCCCCNCCc1ccc(Cl)cc1)CC2 (centres undefined) | 740 nM |
| O=C(c1ccc(OCCn2ccnc2)cc1)N1CCC(c2ccc(Br)cc2)C1 (centres undefined) | 120 nM |
| CCCCCC1c2[nH]c3ccccc3c2CCN1C(=O)OCc1ccccc1 (centres undefined) | 390 nM |
| COc1cccc(CCNCc2ccc(-c3cccc(CNC4CCCC4)c3)cc2)c1 | 730 nM |
| NCC(=O)NC12CC3CC(CC(C3)C1)C2 | 1200 nM |
| CC(=O)N(C)c1cccc(C(=O)Nc2cccc(-c3ccc(-c4nc5ccc(C(F)(F)F)cc5[nH]4)cc3)c2)c1 | 1000 nM |
| COc1cc(/C=C/C(=O)NCC(CCNc2cc(=O)c3ccccc3[nH]2)NCc2cc(Br)cc(Br)c2)cc(OC)c1 (centres undefined) | 910 nM |
| CCCC(CNCc1cccc(I)c1)CNc1cc(=O)c2ccccc2[nH]1 (centres undefined) | 470 nM |
| COc1ccc(Oc2ccc(-c3c(C)[nH]c(C)c(Cl)c3=O)cc2)cc1 | 140 nM |
| CCCNCCc1ccc(NS(=O)(=O)c2cccc(-c3ccc(Cl)cc3)c2)cc1 | 970 nM |
| O=C(NCC1CCN(Cc2ccc(F)cc2)C1)c1cc(-c2cccc(C(F)(F)F)c2)cs1 (centres undefined) | 960 nM |
| Cc1[nH]c(C)c(-c2ccc(CCc3ccc(C(F)(F)F)cc3)nc2)c(=O)c1Cl | 90 nM |
| Oc1ccc2[nH]cc(C3CCN(CCCNCc4ccc(-c5ccccc5)cc4)CC3)c2c1 | 720 nM |
| CNc1ccc(CNCc2ccc(-c3ccc(-c4nc5c(C)cccc5[nH]4)cc3)cc2)cc1 | 320 nM |
| O=C(Nc1ccc(F)cc1)NC1CCN(c2ccnc3ccccc23)C1 (centres undefined) | 870 nM |
| N#CNC(=NCCCSc1csc(N=C(N)N)n1)NCCCCCCCCN=C(NC#N)NCCSCc1csc(N=C(N)N)n1 | 840 nM |
| CC(=NO)C1=C(O)C(c2ccccc2)N(c2ccccc2)C1=O (centres undefined) | 700 nM |
| Cc1noc(-c2cccs2)c1C(=O)NC(C)c1cccc2ccccc12 (centres undefined) | 130 nM |
| Fc1ccc2nc(-c3cccc(-c4ccc(CNCc5ccccc5)cc4)c3)[nH]c2c1 | 270 nM |
